Experimental data published in patent publication US20220273619A1, “PHARMACEUTICAL FORMULATIONS COMPRISING SODIUM PALMITOYL-L-PROLYL-L-PROLYLGLYCYL-L-TYROSINATE AND METHODS FOR PREPARING THE SAME” (Bridge Blctherapeutics, lnc., priority 2019, published 2022).
In brackets after ≈: the same amount, converted by molar mass. Where a name gives a salt, the structure may show the parent alone. Where a SMILES comes first, the peptide text is derived from it. The star is where a group is joined. Palmitoyl = CCCCCCCCCCCCCCCC(=O)*

How the values were obtained:
[1] = Solubility in water of other salts of Compound II; format: physicochemical
[2] = Stability test: impurities by HPLC after storage; format: physicochemical
Procedure: After the dosage forms prepared in the present invention were stored for a period of time in a long-term storage stability condition (25° C./60% RH) or an accelerated stability condition (40° C./75% RH), the content of individual impurities or total impurities was measured. The impurities were measured using a validated HPLC analysis method. The specific conditions are as follows.

[3] = Solubility at room temperature, manual dilution combined with visual observation; format: physicochemical; details: for solubility: room temperature
Procedure: The solubility was tested in various solvents for palmitoyl-L-prolyl-L-prolyl-glycyl-L-tyrosine (Compound II). The solubility test was performed by manual dilution combined with visual observation.
The solubility was tested at room temperature in various solvents for Compound I. In addition, the solubility test was performed by manual dilution combined with visual observation. Specifically, 2 mg of Compound I was added to a 1.5 mL HPLC vial and continuously stirred at ambient temperature while the solvent was gradually added.

interleukin-6 = details: cited from earlier work
NF-κB = details: cited from earlier work
[4] = Solubility by shaking at 25° C., filtration and HPLC of the filtrate; format: physicochemical
Procedure: The solubility was measured by the following method. An appropriate amount of sample was placed in a 1.5 mL HPLC vial, and then 1.0 mL of solvent was added. The HPLC vial was shaken at 25° C. at a speed of 700 rpm, then the slurry was filtered, and the filtrate was analyzed by HPLC. In this case, the limit of quantification (LOQ) was 2 μg/mL.
In order to increase the solubility of palmitoyl-L-prolyl-L-prolyl-glycyl-L-tyrosine (Compound II) in water, the amorphous solid dispersions of Compound II were prepared, and then the solubility was measured.
In order to increase the solubility of palmitoyl-L-prolyl-L-prolyl-glycyl-L-tyrosine (Compound II) in water, a surfactant such as sodium lauryl sulfate (SLS) was added, and the solubility was measured.

[5] = Solid-form observation of the disodium salt (hygroscopicity); format: physicochemical; details: could not be maintained in the form of the solid powder
Procedure: In the method for preparing Compound I, an excess of NaOH (for example; 4 equivalents) was added to prepare disodium palmitoyl-L-prolyl-L-prolyl-glycyl-L-tyrosinate.

[6] = 1,4-dioxane, 1,4-dioxane, read-out: Solubility
[7] = 1-butanol, read-out: Solubility
[8] = 2-methyl tetrahydrofuran, read-out: Solubility
[9] = ACN-H2O (1:1), read-out: Solubility
[10] = N-methyl pyrrolidone, read-out: Solubility
[11] = THF-H2O (1:1), read-out: Solubility
[12] = acetone-H2O (1:2), read-out: Solubility
[13] = acetonitrile, read-out: Solubility
[14] = cyclohexane, read-out: Solubility
[15] = ethanol-H2O (1:1), read-out: Solubility
[16] = ethanol-H2O (3:1), read-out: Solubility
[17] = ethyl acetate, read-out: Solubility
[18] = isopropyl acetate, read-out: Solubility
[19] = isopropyl alcohol, read-out: Solubility
[20] = methanol-H2O (1:1), read-out: Solubility
[21] = methanol-H2O (3:1), read-out: Solubility
[22] = methyl ethyl ketone, read-out: Solubility
[23] = methyl isobutyl ketone, read-out: Solubility
[24] = methyl t-butyl ether, read-out: Solubility
[25] = tetrahydrofuran, read-out: Solubility
[26] = SGF (pH = 1.2), 25° C., LOQ = 2 μg/mL

## CCCCCCCCCCCCCCCC(=O)N1CCC[C@H]1C(=O)N1CCC[C@H]1C(=O)NCC(=O)N[C@@H](Cc1ccc(O)cc1)C(=O)O [Arginine Salt] (Palmitoyl-PPGY-OH)
[1]
  solubility: <10000 µg/mL

## CCCCCCCCCCCCCCCC(=O)N1CCC[C@H]1C(=O)N1CCC[C@H]1C(=O)NCC(=O)N[C@@H](Cc1ccc(O)cc1)C(=O)[O-].[Na+] [Compound I, sodium palmitoyl-L-prolyl-L-prolyl-glycyl-L-tyrosinate] (Palmitoyl-PPGY-OH)
[2]; in capsules of Table 26, 1 month, accelerated stability condition 40° C./75% RH
  Stability of Compound I: stable
[2]; in capsules of Table 31, 1 month, accelerated stability condition 40° C./75% RH
  Stability of Compound I: stable
[2]; in capsules of Table 36, 6 months, long-term storage stability condition 25° C./60% RH
  Stability of Compound I: stable
[2]; in capsules of Table 37, 6 months, accelerated stability condition 40° C./75% RH
  Stability of Compound I: stable
[3]; [6]
  solubility: 33300 to 50000 µg/mL
[3]; [7]
  solubility: 50000 to 100000 µg/mL
[3]; [8]
  solubility: > 100000 µg/mL
[3]; [9]
  solubility: 50000 to 100000 µg/mL
[3]; DMF, read-out: Solubility
  solubility: 20000 to 33300 µg/mL
[3]; DMSO, read-out: Solubility
  solubility: 50000 to 100000 µg/mL
[3]; [10]
  solubility: 50000 to 100000 µg/mL
[3]; [11]
  solubility: 50000 to 100000 µg/mL
[3]; [12]
  solubility: 50000 to 100000 µg/mL
[3]; acetone, read-out: Solubility
  solubility: < 1000 µg/mL
[3]; [13]
  solubility: < 1000 µg/mL
[3]; [14]
  solubility: < 1000 µg/mL
[3]; [15]
  solubility: 50000 to 100000 µg/mL
[3]; [16]
  solubility: 50000 to 100000 µg/mL
[3]; ethanol, read-out: Solubility
  solubility: 50000 to 100000 µg/mL
[3]; [17]
  solubility: < 1000 µg/mL
[3]; heptane, read-out: Solubility
  solubility: < 1000 µg/mL
[3]; [18]
  solubility: < 1000 µg/mL
[3]; [19]
  solubility: 50000 to 100000 µg/mL
[3]; [20]
  solubility: > 100000 µg/mL
[3]; [21]
  solubility: > 100000 µg/mL
[3]; methanol, read-out: Solubility
  solubility: > 100000 µg/mL
[3]; [22]
  solubility: 3300 to 5000 µg/mL
[3]; [23]
  solubility: 1200 to 1400 µg/mL
[3]; [24]
  solubility: < 1000 µg/mL
[3]; [25]
  solubility: > 100000 µg/mL
[3]; toluene, read-out: Solubility
  solubility: 50000 to 100000 µg/mL
[3]; water
  water solubility of Compound I compared to that of Compound II in an acid form: tens of thousands of times or more
[3]; water, read-out: Solubility
  solubility: ≥ 100000 µg/mL

## CCCCCCCCCCCCCCCC(=O)N1CCC[C@H]1C(=O)N1CCC[C@H]1C(=O)NCC(=O)N[C@@H](Cc1ccc(O)cc1)C(=O)O [Compound II, Palmitoyl-L-prolyl-L-prolyl-glycyl-L-tyrosine] (Palmitoyl-PPGY-OH)
interleukin-6
  inhibiting the expression of interleukin-6: excellent effect
NF-κB
  inhibiting the activity of NF-κB: excellent effect
[3]; [6]
  solubility: < 1000 µg/mL
[3]; [7]
  solubility: < 1000 µg/mL
[3]; [8]
  solubility: < 1000 µg/mL
[3]; [9]
  solubility: < 1000 µg/mL
[3]; DMF, read-out: Solubility
  solubility: 1000 to 5000 µg/mL
[3]; DMSO, read-out: Solubility
  solubility: 10000 to 25000 µg/mL
[3]; [10]
  solubility: 1000 to 5000 µg/mL
[3]; [11]
  solubility: 1000 to 5000 µg/mL
[3]; Water
  solubility: <1000 µg/mL
[3]; [12]
  solubility: < 1000 µg/mL
[3]; acetone, read-out: Solubility
  solubility: < 1000 µg/mL
[3]; [13]
  solubility: < 1000 µg/mL
[3]; [14]
  solubility: < 1000 µg/mL
[3]; [15]
  solubility: < 1000 µg/mL
[3]; [16]
  solubility: < 1000 µg/mL
[3]; ethanol, read-out: Solubility
  solubility: < 1000 µg/mL
[3]; [17]
  solubility: < 1000 µg/mL
[3]; heptane, read-out: Solubility
  solubility: < 1000 µg/mL
[3]; [18]
  solubility: < 1000 µg/mL
[3]; [19]
  solubility: < 1000 µg/mL
[3]; [20]
  solubility: < 1000 µg/mL
[3]; [21]
  solubility: < 1000 µg/mL
[3]; methanol, read-out: Solubility
  solubility: 1000 to 5000 µg/mL
[3]; [22]
  solubility: < 1000 µg/mL
[3]; [23]
  solubility: < 1000 µg/mL
[3]; [24]
  solubility: < 1000 µg/mL
[3]; [25]
  solubility: < 1000 µg/mL
[3]; toluene, read-out: Solubility
  solubility: < 1000 µg/mL
[3]; water, read-out: Solubility
  solubility: < 1000 µg/mL
[4]; 1% Poloxamer 188 added, SGF (pH = 1.2), LOQ = 2 μg/mL
  solubility: <LOQ
[4]; 1% Poloxamer 188 added, Water, LOQ = 2 μg/mL
  solubility: <LOQ
[4]; 5% Poloxamer 188 added, SGF (pH = 1.2), LOQ = 2 μg/mL
  solubility: <LOQ
[4]; 5% Poloxamer 188 added, Water, LOQ = 2 μg/mL
  solubility: <LOQ
[4]; FaSSIF with 1% Poloxamer 188, 1% Poloxamer 188 added, FaSSIF, LOQ = 2 μg/mL, read-out: Solubility
  solubility: 10 µg/mL (≈ 14.9 µM)
[4]; FaSSIF with 1% SLS, 1% SLS added, FaSSIF, LOQ = 2 μg/mL, read-out: Solubility
  solubility: 1990 µg/mL (≈ 2970 µM)
[4]; FaSSIF with 5% Poloxamer 188, 5% Poloxamer 188 added, FaSSIF, LOQ = 2 μg/mL, read-out: Solubility
  solubility: 10 µg/mL (≈ 14.9 µM)
[4]; FaSSIF with 5% SLS, 5% SLS added, FaSSIF, LOQ = 2 μg/mL, read-out: Solubility
  solubility: 5090 µg/mL (≈ 7590 µM)
[4]; FaSSIF, 25° C., LOQ = 2 μg/mL
  solubility: 10 µg/mL (≈ 14.9 µM)
[4]; [26]
  solubility: <LOQ
[4]; SGF with 1% SLS, pH 1.2, 1% SLS added, SGF (pH = 1.2), LOQ = 2 μg/mL, read-out: Solubility
  solubility: 90 µg/mL (≈ 134 µM)
[4]; SGF with 5% SLS, pH 1.2, 5% SLS added, SGF (pH = 1.2), LOQ = 2 μg/mL, read-out: Solubility
  solubility: 380 µg/mL (≈ 566 µM)
[4]; Water, 25° C., LOQ = 2 μg/mL
  solubility: <LOQ
[4]; water with 1% SLS, 1% SLS added, Water, LOQ = 2 μg/mL, read-out: Solubility
  solubility: 470 µg/mL (≈ 701 µM)
[4]; water with 5% SLS, 5% SLS added, Water, LOQ = 2 μg/mL, read-out: Solubility
  solubility: 1920 µg/mL (≈ 2860 µM)
[4]; water, lower than the limit of quantification (LOQ), read-out: water solubility
  solubility: < 2 µg/mL

## CCCCCCCCCCCCCCCC(=O)N1CCC[C@H]1C(=O)N1CCC[C@H]1C(=O)NCC(=O)N[C@@H](Cc1ccc([O-])cc1)C(=O)[O-].[Na+].[Na+] [Disodium Palmitoyl-L-prolyl-L-prolyl-glycyl-L-tyrosinate] (Palmitoyl-PPGY-OH)
[5]
  Hygroscopicity: very hygroscopic

## CCCCCCCCCCCCCCCC(=O)N1CCC[C@H]1C(=O)N1CCC[C@H]1C(=O)NCC(=O)N[C@@H](Cc1ccc(O)cc1)C(=O)O [Meglumine Salt] (Palmitoyl-PPGY-OH)
[1]; read-out: Solubility
  solubility: < 10000 µg/mL

## CCCCCCCCCCCCCCCC(=O)N1CCC[C@H]1C(=O)N1CCC[C@H]1C(=O)NCC(=O)N[C@@H](Cc1ccc(O)cc1)C(=O)O [Micronized Compound II] (Palmitoyl-PPGY-OH)
[4]; FaSSIF, 25° C., LOQ = 2 μg/mL
  solubility: 50 µg/mL (≈ 74.5 µM)
[4]; [26]
  solubility: <LOQ
[4]; Water, 25° C., LOQ = 2 μg/mL
  solubility: <LOQ
